We go through five compounds from ChEMBL document CHEMBL1649540, “The novel CXCR4 antagonist KRH-3955 is an orally bioavailable and extremely potent inhibitor of human immunodeficiency virus type 1 infection: comparative studies with AMD3100” (Antimicrob Agents Chemother, 2009).

The test system of experiment [1] is Human immunodeficiency virus 1. Nature of the experiment: Antiviral activity against HIV1 JRCSF infected in human PBMC assessed as inhibition of viral p24 antigen production after 7 to 10 days by ELISA. The class given is functional. Particulars: Human immunodeficiency virus 1, JRCSF ISOLATE. A general note: An ELISA detects its analyte on a solid surface through an enzyme-linked reagent.

Experiment [2] concerns Human immunodeficiency virus 1. Nature of the experiment: Antiviral activity against HIV1 X4 infected in human PBMC assessed as inhibition of viral p24 antigen production after 7 to 10 days by ELISA. The experiment is classed as functional, organism-based. Particulars: Human immunodeficiency virus 1, X4.
Experiment [3] has as its system Human immunodeficiency virus 1. Nature of the experiment: Antiviral activity against HIV1 A018H infected in human PBMC assessed as inhibition of viral p24 antigen production after 7 to 10 days by ELISA. The class given is functional, organism-based. Particulars: Human immunodeficiency virus 1, A018H.
Experiment [4] concerns Human immunodeficiency virus 1. Nature of the experiment: Antiviral activity against HIV1 R5 infected in human PBMC assessed as inhibition of viral p24 antigen production after 7 to 10 days by ELISA. Particulars: Human immunodeficiency virus 1, R5. The class given is functional, organism-based.
The subject of experiment [5] is Human immunodeficiency virus 1. Nature of the experiment: Antiviral activity against HIV1 NL4-3 infected in human PBMC assessed as inhibition of viral p24 antigen production after 7 to 10 days by ELISA. The experiment is classed as functional, organism-based. Conditions: Human immunodeficiency virus 1, NL4-3.
For experiment [6], the system named is Human immunodeficiency virus 1. Nature of the experiment: Antiviral activity against HIV1 A018G infected in human PBMC assessed as inhibition of viral p24 antigen production after 7 to 10 days by ELISA. The experiment is classed as functional, organism-based. Conditions: Human immunodeficiency virus 1, A018G.
The test system of experiment [7] is Human immunodeficiency virus 1. Nature of the experiment: Antiviral activity against HIV1 89.6 infected in human PBMC assessed as inhibition of viral p24 antigen production after 7 to 10 days by ELISA. The experiment is classed as functional, organism-based. Particulars: Human immunodeficiency virus 1, 89.6.
Experiment [8] concerns Human immunodeficiency virus 1. Nature of the experiment: Antiviral activity against NRTI-resistant HIV1 HXB2 infected in HEK293 cells assessed as inhibition of viral replication after 2 days. The class given is functional, organism-based. Conditions: Human immunodeficiency virus 1, HXB2, HEK293, 48 h.
Experiment [9] relates to C-X-C chemokine receptor type 4 (Homo sapiens), P61073 [D181A]. Nature of the experiment: Inhibition of Mab 12G5 binding to CXCR4 D181A mutant expressed in HEK293 cells. The experiment is classed as cell-based.
Experiment [10] relates to Human immunodeficiency virus 1. Nature of the experiment: Antiviral activity against NNRTI-resistant HIV1 HXB2 infected in HEK293 cells assessed as inhibition of viral replication after 2 days. The class given is functional, organism-based. Conditions: Human immunodeficiency virus 1, HXB2, HEK293, 48 h.
In experiment [11] the test system is Human immunodeficiency virus 1. Nature of the experiment: Antiviral activity against T20-resistant HIV1 NL4-3 infected in HEK293 cells assessed as inhibition of viral replication after 2 days. The class given is functional, organism-based. Conditions: Human immunodeficiency virus 1, NL4-3, HEK293, 48 h.
Experiment [12] deals with Human immunodeficiency virus 1. Nature of the experiment: Antiviral activity against HIV1 HXB2 infected in HEK293 cells assessed as inhibition of viral replication after 2 days. The experiment is classed as functional, organism-based. Particulars: Human immunodeficiency virus 1, HXB2, HEK293, 48 h.
Experiment [13] addresses T1, C-X-C chemokine receptor type 4 (Homo sapiens, UniProt P61073). Nature of the experiment: Displacement of [125I]SDF-1alpha form CXCR4 expressed in CHO cells at 0.1 to 1000 nmol/L by scintillation counting. The class given is cell-based. On the technique in general: Displacement assays read how much labelled ligand stays bound in the presence of the test substance.
For experiment [14], the target named is T1, C-X-C chemokine receptor type 4. Conditions: MOLT-4; 1000 nM.
Description: Inhibition of Mab 12G5 binding to CXCR4 expressed in human MOLT4 cells at 1000 nM by FACS analysis
The test system of experiment [15] is Human immunodeficiency virus 1. Nature of the experiment: Antiviral activity against PI-resistant HIV1 HXB2 infected in HEK293 cells assessed as inhibition of viral replication after 2 days. The experiment is classed as functional, organism-based. Particulars: Human immunodeficiency virus 1, HXB2, HEK293, 48 h.
For experiment [16], the system named is C-X-C chemokine receptor type 4 (Homo sapiens), P61073 [V280A]. Nature of the experiment: Inhibition of Mab 12G5 binding to CXCR4 V280A mutant expressed in HEK293 cells. The experiment is classed as cell-based.
Experiment [17] deals with C-X-C chemokine receptor type 4 (Homo sapiens), P61073 [V112A]. Nature of the experiment: Inhibition of Mab 12G5 binding to CXCR4 V112A mutant expressed in HEK293 cells. The class given is cell-based.
For experiment [18], the system named is Human immunodeficiency virus 1. Nature of the experiment: Antiviral activity against multidrug resistant HIV1 HXB2 infected in HEK293 cells assessed as inhibition of viral replication after 2 days. The experiment is classed as functional, organism-based. Particulars: Human immunodeficiency virus 1, HXB2, HEK293, 48 h.
In experiment [19] the test system is C-X-C chemokine receptor type 4 (Homo sapiens), P61073 [H281A]. Nature of the experiment: Inhibition of Mab 12G5 binding to CXCR4 H281A mutant expressed in HEK293 cells. The experiment is classed as cell-based.
In experiment [20] the target is T1, C-X-C chemokine receptor type 4. Particulars: MOLT-4; 1000 nM. The source holds these as a separate data set.
Description: Inhibition of Mab 12G5 binding to CXCR4 expressed in human MOLT4 cells at 1000 nM measured post drug washout by FACS analysis
Experiment [21] deals with Human immunodeficiency virus 1. Nature of the experiment: Antiviral activity against HIV1 NL4-3 infected in HEK293 cells assessed as inhibition of viral replication after 2 days. The class given is functional, organism-based. Conditions: Human immunodeficiency virus 1, NL4-3, HEK293, 48 h.

Structures are written as SMILES. The source made the active and inactive calls. The calls are words filed in the database; no cut-off is given here. Where only a bound is given, the exact number is not on record here.

T1 sequence (P61073 whole entry): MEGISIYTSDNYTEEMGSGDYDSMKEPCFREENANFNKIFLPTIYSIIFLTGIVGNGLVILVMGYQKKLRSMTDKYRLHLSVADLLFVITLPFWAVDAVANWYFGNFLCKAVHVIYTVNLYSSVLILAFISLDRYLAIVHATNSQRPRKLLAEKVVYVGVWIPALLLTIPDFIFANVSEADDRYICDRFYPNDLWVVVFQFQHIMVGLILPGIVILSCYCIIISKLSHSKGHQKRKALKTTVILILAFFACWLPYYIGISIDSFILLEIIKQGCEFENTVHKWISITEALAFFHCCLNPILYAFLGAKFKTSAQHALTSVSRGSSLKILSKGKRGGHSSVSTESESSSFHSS
C-X-C chemokine receptor type 4 (Homo sapiens), P61073 [H281A], sequence (P61073 whole entry H281A): as the sequence (P61073 whole entry) above, with H281A counted along it
C-X-C chemokine receptor type 4 (Homo sapiens), P61073 [V112A], sequence (P61073 whole entry V112A): as the sequence (P61073 whole entry) above, with V112A counted along it
C-X-C chemokine receptor type 4 (Homo sapiens), P61073 [D181A], sequence (P61073 whole entry D181A): as the sequence (P61073 whole entry) above, with D181A counted along it
C-X-C chemokine receptor type 4 (Homo sapiens), P61073 [V280A], sequence (P61073 whole entry V280A): as the sequence (P61073 whole entry) above, with V280A counted along it

In the case of `Cc1cn([C@H]2C[C@H](N=[N+]=[N-])[C@@H](CO)O2)c(=O)[nH]c1=O` [ZIDOVUDINE], the concentration for a half-maximal effect (EC50) – broadly, the concentration giving half of the maximal effect – was 0.96 nM in experiment [1]; 8 nM in experiment [2]; 1.9 nM in experiment [3]; 6.2 nM in [4]; 11 nM in experiment [5]; 87000 nM in experiment [6]. For the same compound, the EC50 in experiment [7] was 7.4 nM.

Regarding `NCCCCN(Cc1nc2ccccc2[nH]1)[C@H]1CCCc2cccnc21` [MAVORIXAFOR], the concentration giving a half-maximal response (EC50) in [1] was greater than 200 nM; in [2], 15 nM; in experiment [4], greater than 200 nM; in experiment [5], 35 nM; in experiment [7], 55 nM.

For `COC[C@@H](c1ccc(C(F)(F)F)cc1)N1CCN(C2(C)CCN(C(=O)c3c(C)ncnc3C)CC2)C[C@@H]1C` [VICRIVIROC], the EC50 in experiment [1] was 0.37 nM; in experiment [2], greater than 1000 nM; in experiment [4] it was 1.2 nM; in experiment [5] it was greater than 1000 nM; in [7], greater than 1000 nM.

For `c1cc(CN2CCCNCCNCCCNCC2)ccc1CN1CCCNCCNCCCNCC1` [PLERIXAFOR], the IC50 (as a rule, the point on the concentration scale where inhibition reaches its midpoint) in experiment [8] is 9 nM; in experiment [10], 7 nM; in experiment [11] it was 2.3 nM; in experiment [12], 6.2 nM; in [15], 9.2 nM; in experiment [18] it was 5.3 nM. Moreover, in [21], the IC50 came to 4.6 nM. Also, the IC90 (usually the concentration at which the effect reaches the 90% level) came out at 796 nM in [9], 821 nM in [16], 821 nM in experiment [17] and 572 nM in [19]. Besides, the EC50 in [1] was greater than 200 nM; in experiment [2], 15 nM; in [3] it was 38 nM; in experiment [4] it was greater than 200 nM; in experiment [5] it was 41 nM; in experiment [6], 32 nM. The EC50 in [7] came out at 44 nM. The outcome in [13] was inactive. In addition, the inhibition entry in [14] is “Active”. Besides, in experiment [20], the inhibition entry is “inactive”.

`CC(C)(C)NC(=O)[C@@H]1C[C@@H]2CCCC[C@@H]2CN1C[C@@H](O)[C@H](Cc1ccccc1)NC(=O)[C@H](CC(N)=O)NC(=O)c1ccc2ccccc2n1`: the EC50 in [1] came out at 2.6 nM; in experiment [2] it was 29 nM; in [4], 8 nM; in [5], 9 nM; in experiment [7] it was 9.9 nM.
